Series [1] deals with HNE Induced Lung Haemorrhage in the Rat. The series can be described thus: HNE induced lung haemorrhage in the rat. The conditions noted are these: 100 μg/kg i.t., 6 hours prior to HNE, free base, statistically significant. The format is in vivo. From the text:
HNE Induced Lung Haemorrhage in the Rat
Instillation of human neutrophil elastase (HNE) into rat lung causes acute lung damage. The extent of this injury can be assessed by measuring lung haemorrhage.
Male Sprague Dawley rats (175-220 g) were obtained from Harlan UK Ltd., full barrier-bred and certified free from specified micro-organisms on receipt. Animals were weighed and randomly assigned to treatment groups (7-12 animals to per group).
The vehicle used was 1% DMSO/Saline. Inhibitors were dissolved in 1% DMSO before the addition of 0.9% saline.
Animals in each study used to determine the efficacy of the elastase inhibitors delivered locally to the lung by a variety of routes. […]
Once defrosted 100 μl of each lysed cell suspension was placed into a separate well of a 96 well flat bottomed plate. […] The OD of the contents of each well was measured at 415 nm using a spectramax 250 (Molecular devices). […]
The amount of blood in each experimental sample was calculated by comparison to the standard curve. Data were then analysed as below: • 1) The mean OD for duplicates was calculated • 2) The value for the blank was subtracted from the value for all other samples • 3) Data were assessed to evaluate the normality of distribution.

The target in a further series is T1, human leukocyte elastase (Homo sapiens, UniProt P08246).
T1 construct: purchased Sigma E8140
T1 sequence (P08246 30-247 limits assumed): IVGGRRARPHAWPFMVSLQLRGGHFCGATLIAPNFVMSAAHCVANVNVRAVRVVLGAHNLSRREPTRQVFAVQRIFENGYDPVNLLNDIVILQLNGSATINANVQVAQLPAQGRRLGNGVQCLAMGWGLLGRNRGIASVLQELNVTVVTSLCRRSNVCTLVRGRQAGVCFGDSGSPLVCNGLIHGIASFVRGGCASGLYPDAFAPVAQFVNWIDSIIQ
The series can be described thus: Enzyme inhibition assay using fluorescent peptide substrate. The format is biochemical. The settings on record: MeO-Suc-Ala-Ala-Pro-ValAMC substrate 100 μM, free base, means of two independent experiments. How it is done:
Using Fluorescent Peptide Substrate
Assays were performed in 96-well plates at a total assay volume of 100 μl. The final concentration of the enzyme (human leukocyte elastase, Sigma E8140) was 0.00036 units/well. A peptide substrate (MeO-Suc-Ala-Ala-Pro-ValAMC (SEQ ID NO: 1), Calbiochem #324745) was used, at the final concentration of 100 μM. The final concentration of DMSO was 1% in the assay buffer (0.05M Tris.HCl, pH 7.5, 0.1M NaCl; 0.1M CaCl2; 0.0005% brij-35).
The enzymatic reaction was started by adding the enzyme. The enzymatic reaction was performed at RT and after 30 mins stopped by adding 50 μl soybean trypsin inhibitor (Sigma T-9003) at a final concentration of 50 μg/well. Fluorescence was read on the FLEXstation (Molecular Devices) using 380 nm excitation and 460 nm emission filters. […] The results are means of two independent experiments, each performed in duplicate.
The results are means of two independent experiments, each performed in duplicate.

A short description of series [2]: PK assay: half life in the lung after intra-tracheal administration. The format is in vivo. The settings on record: rat, other: intra-tracheal, 10 ug/kg; male Sprague-Dawley rats, single intra-tracheal dose 10 μg/Kg, lung homogenate; free base; read-out: terminal lung t1/2 (converted). Here is the method: Comparison of the Half Lives in the Lung of the Compound of the Invention and the Compound of Example 18 of WO2007/129060
Test material was formulated at 20 μg/mL in 0.2% Tween 80 in saline. Solutions were sonicated and warmed in a water bath at 40° C. prior to dosing. Male Sprague-Dawley rats received a single intra-tracheal administration of the test material via a Penn-Century dosing needle at the nominal dose level of 10 μg/Kg. After dosing five rats from each group were terminally anaesthetized with sodium pentobarbitone at 1, 2, 4, 8, 24, 72 and 96 hours for compound (IA) (free base) and 1, 4, 8, 24, 72, 96, 168, 264 and 336 for compound (II) (free base) post dose. Blood was sampled from the tail vein, following which the chest was opened, the animal exanguinated by perfusion and the lungs removed and snap frozen. After collection the blood samples were centrifuged (10000×g, 2 min at 4° C.). Plasma was removed and both stored frozen at −20° C. Rat lungs were homogenised in water (on ice) to give a ratio of 1 part lung:2 parts water (w/v). A 100 μL aliquot of each homogenate was extracted by addition of 200 μL acetonitrile containing an analytical internal standard. […]
Test material was analysed on a triple quadrupole mass spectrometer (AB Sciex API 3000) fitted with LC pump and autosampler (Reliance). Test material was detected in positive ion mode Turbo Ion Spray. […]

SMILES strings stand for the structures.

As for `N#Cc1ccc([C@H]2NC(=O)N(c3cccc(C(F)(F)F)c3)C3=C2C(=O)N(CCCNCCCN2CC4=C(C2=O)[C@@H](c2ccc(C#N)nc2)NC(=O)N4c2cccc(C(F)(F)F)c2)C3)cn1` [Compound (IA)], the “reduction in haemorrhage relative to control” value in series [1] came out at 95%. In addition, on human leukocyte elastase, the IC50 was 8.4 nM. The half-life in series [2] was 37 h.
The like results for `N#Cc1ccc([C@H]2NC(=O)N(c3cccc(C(F)(F)F)c3)C3=C2C(=O)N(CCCNCCCN2CC4=C(C2=O)[C@@H](c2ccc(C#N)cc2)NC(=O)N4c2cccc(C(F)(F)F)c2)C3)cc1` [Compound (II)] were, in that order, 88%, 2.1 nM and 94 h.
